This passage reports IC50 results from patent publication US20240376099A1, “COMPOUNDS AND COMPOSITIONS AS INHIBITORS OF ENDOSOMAL TOLL-LIKE RECEPTORS” (Novartis AG, priority 2016, published 2024).

SMILES strings stand for the structures.

In this test the target is T1, TLR7 (Homo sapiens, UniProt Q9NYK1).
T1 construct: Fresh blood was collected from normal human donors; endogenous in cells; host or cells: human PBMCs from fresh donor blood
T1 sequence (Q9NYK1 27-1049): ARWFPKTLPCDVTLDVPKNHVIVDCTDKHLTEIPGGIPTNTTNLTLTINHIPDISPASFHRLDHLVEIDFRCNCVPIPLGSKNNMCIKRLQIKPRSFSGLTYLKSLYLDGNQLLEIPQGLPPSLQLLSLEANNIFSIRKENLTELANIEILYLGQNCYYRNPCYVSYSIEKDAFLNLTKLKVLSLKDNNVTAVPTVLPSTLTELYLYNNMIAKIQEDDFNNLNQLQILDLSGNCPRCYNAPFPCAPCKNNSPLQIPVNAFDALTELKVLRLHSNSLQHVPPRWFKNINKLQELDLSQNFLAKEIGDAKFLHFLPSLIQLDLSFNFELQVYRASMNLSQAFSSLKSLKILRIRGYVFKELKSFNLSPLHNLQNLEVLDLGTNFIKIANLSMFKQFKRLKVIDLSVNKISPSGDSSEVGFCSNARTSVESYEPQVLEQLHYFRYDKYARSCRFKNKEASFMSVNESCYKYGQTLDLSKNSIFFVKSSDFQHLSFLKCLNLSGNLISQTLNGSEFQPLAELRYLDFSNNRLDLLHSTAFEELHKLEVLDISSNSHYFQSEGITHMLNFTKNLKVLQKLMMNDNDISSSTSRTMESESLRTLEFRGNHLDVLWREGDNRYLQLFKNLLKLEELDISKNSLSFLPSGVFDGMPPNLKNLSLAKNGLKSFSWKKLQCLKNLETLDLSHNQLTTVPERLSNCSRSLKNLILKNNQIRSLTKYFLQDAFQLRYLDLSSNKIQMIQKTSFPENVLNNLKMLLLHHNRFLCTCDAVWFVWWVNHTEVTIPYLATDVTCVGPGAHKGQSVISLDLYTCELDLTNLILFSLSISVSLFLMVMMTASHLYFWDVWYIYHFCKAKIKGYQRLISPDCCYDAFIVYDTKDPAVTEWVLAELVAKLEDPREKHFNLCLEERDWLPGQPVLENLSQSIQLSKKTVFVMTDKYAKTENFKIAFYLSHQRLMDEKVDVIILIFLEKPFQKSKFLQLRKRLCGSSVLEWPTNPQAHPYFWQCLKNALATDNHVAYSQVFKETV
The experiment in a line: huPBMC TLR7 Antagonist IFNα Assay. To be noted: human PBMCs stimulated with ssRNA40 10 μg/mL (DOTAP), 14-16 hrs; IFNα2b AlphaLISA read-out. Type of test: cell-based. The procedure, abridged: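 Human PBMCs from fresh donor blood (150,000 cells/well) stimulated 14–16 h at 37 °C with DOTAP-complexed ssRNA40 (final 1 μg/ml for TLR8, 10 μg/mL for TLR7) or ODN2216 (final 0.3 μM, TLR9), 0.25% DMSO, ten-point 1/3 compound dilutions. Supernatant IL-6 read by HTRF (TLR8); IFNα by IFNα2b AlphaLISA (TLR7/TLR9).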
As for `COCCNC12CCC(Cn3nc(C)c4c3CCN(c3ccnc(-c5ccccc5)c3)C4)(CC1)CC2` [compound 130, N-(2-methoxyethyl)-4-((3-methyl-5-(2-phenylpyridin-4-yl)-4,5,6,7-tetrahydro-1H-pyrazolo[4,3-c]pyridin-1-yl)methyl)bicyclo[2.2.2]octan-1-amine], the IC50 was 1330 nM.
For the molecule `Cc1cc(N2CCc3c(c(C)nn3CC34CCC(NC(=O)C5CNC5)(CC3)CC4)C2)c2cnn(C)c2n1` [compound 131, N-(4-((5-(1,6-dimethyl-1H-pyrazolo[3,4-b]pyridin-4-yl)-3-methyl-4,5,6,7-tetrahydro-1H-pyrazolo[4,3-c]pyridin-1-yl)methyl)bicyclo[2.2.2]octan-1-yl)azetidine-3-carboxamide], the IC50 is 3 nM.
For `CCN(C)CC(=O)NC12CCC(Cn3nc(C)c4c3CCN(c3cc(C)nc5c3cnn5C)C4)(CC1)CC2` [compound 132, N-(4-((5-(1,6-dimethyl-1H-pyrazolo[3,4-b]pyridin-4-yl)-3-methyl-4,5,6,7-tetrahydro-1H-pyrazolo[4,3-c]pyridin-1-yl)methyl)bicyclo[2.2.2]octan-1-yl)-2-(ethyl(methyl)amino)acetamide] the value was under 0.508 nM.
As for `[2H]C([2H])([2H])N(CC(=O)NC12CCC(Cn3nc(C)c4c3CCN(c3cc(C)nc5c3cnn5C)C4)(CC1)CC2)C([2H])([2H])[2H]` [compound 134, 2-(bis(trideuteromethyl)amino)-N-(4-((5-(1,6-dimethyl-1H-pyrazolo[3,4-b]pyridin-4-yl)-3-methyl-4,5,6,7-tetrahydro-1H-pyrazolo[4,3-c]pyridin-1-yl)methyl)bicyclo[2.2.2]octan-1-yl)acetamide], the IC50 is 1 nM.
Take `Cc1cc(N2CCc3c(c(C)nn3CC34CCC(NCC5(CO)COC5)(CC3)CC4)C2)c2cnn(C)c2n1` [compound 137, (3-(((4-((5-(1,6-dimethyl-1H-pyrazolo[3,4-b]pyridin-4-yl)-3-methyl-4,5,6,7-tetrahydro-1H-pyrazolo[4,3-c]pyridin-1-yl)methyl)bicyclo[2.2.2]octan-1-yl)amino)methyl)oxetan-3-yl)methanol]: the half-inhibitory concentration (IC50) amounted to 72 nM.
For `CCn1ncc2c(N3CCc4c(c(C)nn4CC45CCC(NC(=O)[C@@H]6COCCN6)(CC4)CC5)C3)cc(C)nc21` [compound 141, (S)-N-(4-((5-(1-ethyl-6-methyl-1H-pyrazolo[3,4-b]pyridin-4-yl)-3-methyl-4,5,6,7-tetrahydro-1H-pyrazolo[4,3-c]pyridin-1-yl)methyl)bicyclo[2.2.2]octan-1-yl)morpholine-3-carboxamide] the value was 32 nM; for `CNCCC(=O)NC12CCC(Cn3nc(C)c4c3CCN(c3cc(C)nc5c3cnn5C)C4)(CC1)CC2` [compound 142, N-(4-((5-(1,6-dimethyl-1H-pyrazolo[3,4-b]pyridin-4-yl)-3-methyl-4,5,6,7-tetrahydro-1H-pyrazolo[4,3-c]pyridin-1-yl)methyl)bicyclo[2.2.2]octan-1-yl)-3-(methylamino)propanamide], 47 nM; for `Cc1cc(N2CCc3c(c(C)nn3CC34CCC(NC5CCC5)(CC3)CO4)C2)c2cnn(C)c2n1` [compound 143, N-cyclobutyl-1-((5-(1,6-dimethyl-1H-pyrazolo[3,4-b]pyridin-4-yl)-3-methyl-4,5,6,7-tetrahydro-1H-pyrazolo[4,3-c]pyridin-1-yl)methyl)-2-oxabicyclo[2.2.2]octan-4-amine], 41 nM.
Regarding `Cc1nn(CC23CCC(NC4CCC4)(CC2)CC3)c2c1CN(c1ccnc(-c3ccccc3)c1)CC2` [compound 144, N-cyclobutyl-4-((3-methyl-5-(2-phenylpyridin-4-yl)-4,5,6,7-tetrahydro-1H-pyrazolo[4,3-c]pyridin-1-yl)methyl)bicyclo[2.2.2]octan-1-amine], the IC50 turned out to be 73 nM.
For `Cc1cc(N2CCc3c(c(C)nn3CC34CCC(NC(=O)OC(C)(C)C)(CC3)C4)C2)c2cnn(C)c2n1` [compound 148, tert-butyl (4-((5-(1,6-dimethyl-1H-pyrazolo[3,4-b]pyridin-4-yl)-3-methyl-4,5,6,7-tetrahydro-1H-pyrazolo[4,3-c]pyridin-1-yl)methyl)bicyclo[2.2.1]heptan-1-yl)carbamate] the value was 54 nM.
